Laboratory results: paper PMC5887109, “Unravelling the Molecular Determinants of Bee Sensitivity to Neonicotinoid Insecticides” (Current Biology, 2018)
pIC50: −log10 of the molar value.

Assays:
[1] = biological target: CYP9Q4 (Bombus terrestris, UniProt A0A9B0BBT5); assay: Metabolism by recombinant CYP9Q4/CPR microsomes, LC-MS/MS
Source text: (§1) All bee P450 (see Table S3 for accession numbers) and house fly NADPH-dependent cytochrome P450 reductase (CPR) (GenBank accession number Q07994) genes were obtained by gene synthesis (Geneart, CA, USA) and inserted into the pDEST8 expression vector (Invitrogen). Codon optimization of all bee genes was used to optimize expression in lepidopteran cell lines. The PFastbac1 vector with no inserted DNA was used to produce a control virus. The recombinant baculovirus DNA was constructed and transfected into Trichoplusia ni (High five cells, Thermo Fisher) using the Bac-to-Bac baculovirus expression system (Invitrogen) according to the manufacturer’s instructions. The titer of the recombinant virus was determined following protocols of the supplier. High Five cells grown to a density of 2 × 10^6 cells ml^-1 were co-infected with recombinant baculoviruses containing each bee P450 and CPR with a range of MOI (multiplicity of infection) ratios to identify the optimal conditions. Control cells were co-infected with the baculovirus containing vector with no insert (ctrl-virus) and the recombinant baculovirus expressing CPR using the same MOI ratios. Ferric citrate and δ-aminolevulinic acid hydrochloride were added to a final concentration of 0.1 mM at the time of infection and 24 h after infection to compensate the low levels of endogenous heme in the insect cells. After 48 h, cells were harvested, washed with PBS, and microsomes of the membrane fraction prepared according to standard procedures and stored at −80°C [31]. Briefly, pellets were homogenized for 30 s in 0.1M Na/K-phosphate buffer, pH 7.4 containing 1mM EDTA and DTT and 200mM sucrose using a Fastprep (MP Biomedicals), filtered through miracloth and centrifuging for 10 min at 680 g at 4°C. The supernatant was then centrifuged for 1 h at 100,000 g at 4°C, with the pellet subsequently resuspended in 0.1M Na/K-phosphate buffer, pH 7.6 containing 1mM EDTA and DTT and 10% glycerol using a Dounce tissue grinder. P450 expression and functionality was estimated by measuring CO-difference spectra in reduced samples using a Specord 200 Plus Spectrophotometer (Analytik Jena) and scanning from 500 nm to 400 nm. The protein content of samples was determined using Bradford reagent (Sigma) and bovine serum albumin (BSA) as a reference.
(§2) The total assay volume was 200 μL using three replicates for each data point. […] The assay was stopped by the addition of ice-cold acetonitrile (to 80% final concentration), centrifuged for 10 min at 3000 g and the supernatant subsequently analyzed by tandem mass spectrometry as described previously. […] Substrate turnover from two independent reactions were plotted versus controls and Michaelis-Menten kinetics determined using GraphPad Prism version 7 (GraphPad Software, CA, USA).

[2] = test system: honeybees; conditions: depends on route of exposure; cited from earlier work
[3] = test system: CYP6AS5; assay: Metabolism by recombinant CYP6AS5/CPR microsomes, LC-MS/MS; conditions: thiacloprid hydroxylation
Source text: All bee P450 (see Table S3 for accession numbers) and house fly NADPH-dependent cytochrome P450 reductase (CPR) (GenBank accession number Q07994) genes were obtained by gene synthesis (Geneart, CA, USA) and inserted into the pDEST8 expression vector (Invitrogen). Codon optimization of all bee genes was used to optimize expression in lepidopteran cell lines. The PFastbac1 vector with no inserted DNA was used to produce a control virus. The recombinant baculovirus DNA was constructed and transfected into Trichoplusia ni (High five cells, Thermo Fisher) using the Bac-to-Bac baculovirus expression system (Invitrogen) according to the manufacturer’s instructions. The titer of the recombinant virus was determined following protocols of the supplier. […] The protein content of samples was determined using Bradford reagent (Sigma) and bovine serum albumin (BSA) as a reference.
as §2

[4] = biological target: nicotinic acetylcholine receptor (nAChR); assay: [3H]imidacloprid displacement, honeybee head membrane preparations; type: binding, A. mellifera; conditions: honeybee head membranes; 95% CI given in text
Method: (§3) [^3H]imidacloprid (specific activity 1.406 GBq μmol^−1) displacement studies were conducted using membrane preparations isolated from frozen (−80°C) honeybee and bumble bee heads, respectively, following previously published protocols. Briefly, bee heads weighing 10cg were homogenized in 200cml ice-cold 0.1cM potassium phosphate buffer, pH 7.4 containing 95cmM sucrose using a motor-driven Ultra Turrax blender. […] Assays were performed in a 96-well microtiter plate with bonded GF/C filter membrane (Packard UniFilter-96, GF/C) and consisted of 200 μL of homogenate (0.48cmg protein), 25 μL of [^3H]imidacloprid (576cpM) and 25 μL of competing ligand. Ligand concentrations used ranged from 0.001 to 10c000cnM and were tested at least in duplicate per competition assay. The assay was started by the addition of homogenate and incubated for 60cmin at room temperature. Bound [^3H]imidacloprid was quantified by filtration into a second 96-well filter plate (conditioned with ice-cold 100cmM potassium phosphate buffer, pH 7.4 (including BSA 5cg liter−1)) using a commercial cell harvester (Brandel). […] Each well was then loaded with 25 μL of scintillation cocktail (Microszint-O-Filtercount, Packard) and the plate counted in a Topcount scintillation counter (Packard). Non-specific binding was determined using a final concentration of 10cμM unlabelled imidacloprid. […]

[5] = biological target: nicotinic acetylcholine receptor (nAChR); assay: [3H]imidacloprid displacement, bumble bee head membrane preparations; type: binding, B. terrestris; conditions: bumble bee head membranes; 95% CI given in text
Method: as §3

[6] = test system: CYP9Q5; assay: Metabolism by recombinant CYP9Q5/CPR microsomes, LC-MS/MS
Source text: as §1, §2

[7] = test system: Bombus terrestris; assay: Acute oral insecticide bioassay of bumble bees, with or without PBO; conditions: for increase in the sensitivity of bumble bees after treatment with PBO: oral bioassay, PBO pretreatment; for LD50: 48 hours after application
Method: (§4) Acute contact insecticide assays were performed on female A. mellifera following standard methods OECD 2013 [30]. Bioassays of B. terrestris were based on the OECD guidelines developed for honeybees but with bees assayed in individual Nicot cages. Bees were starved of sucrose solution for up to 2 hr to encourage feeding during the experiment. […] Controls were fed a solution of sucrose containing a concentration of acetone matching that of the highest treatment concentration. After 4-6 hr the syringes were assessed to see if bees had consumed the insecticide-sucrose solution. Those that had not consumed all of the solution were excluded from the experiment. Mortality was assessed 48 hr after feeding and lethal concentrations (LC50 values) were calculated by probit analysis using Genstat version 16 (VSN International). For synergist bioassays, B. terrestris or A. mellifera workers were first treated with 20 μg of piperonyl butoxide or 1 μg of aminobenzotriazole applied to the dorsal thorax. Synergist bioassays included an additional control group treated only with the synergist. 1 hr after synergist application, bees were then treated with the appropriate insecticide dosage as above.

[8] = test system: bumble bees (Bombus terrestris); assay: Bumble bee contact and oral bioassays taken together, EPA rating; conditions: depends on route of exposure
Method: as §4

[9] = test system: transgenic Drosophila expressing honeybee CYP9Q2; assay: Insecticide bioassay of transgenic Drosophila expressing CYP9Q2; type: in vivo, Drosophila melanogaster; conditions: Act5C-GAL4 driven; ratio of LC50 values
Method: (§5) Fly lines were made homozygous for the transgene integrations. […] LC50 values were calculated as above.

[10] = test system: transgenic Drosophila expressing B. terrestris CYP9Q5; assay: Insecticide bioassay of transgenic Drosophila expressing CYP9Q5; type: in vivo, Drosophila melanogaster; conditions: Act5C-GAL4 driven; ratio of LC50 values
Method: as §5

[11] = apparent value, mean ± SD (n=3), decimal commas
[12] = hydroxylation (thiacloprid) or N-desmethylation (acetamiprid)

Sequence of CYP9Q4 (Q07994 whole entry): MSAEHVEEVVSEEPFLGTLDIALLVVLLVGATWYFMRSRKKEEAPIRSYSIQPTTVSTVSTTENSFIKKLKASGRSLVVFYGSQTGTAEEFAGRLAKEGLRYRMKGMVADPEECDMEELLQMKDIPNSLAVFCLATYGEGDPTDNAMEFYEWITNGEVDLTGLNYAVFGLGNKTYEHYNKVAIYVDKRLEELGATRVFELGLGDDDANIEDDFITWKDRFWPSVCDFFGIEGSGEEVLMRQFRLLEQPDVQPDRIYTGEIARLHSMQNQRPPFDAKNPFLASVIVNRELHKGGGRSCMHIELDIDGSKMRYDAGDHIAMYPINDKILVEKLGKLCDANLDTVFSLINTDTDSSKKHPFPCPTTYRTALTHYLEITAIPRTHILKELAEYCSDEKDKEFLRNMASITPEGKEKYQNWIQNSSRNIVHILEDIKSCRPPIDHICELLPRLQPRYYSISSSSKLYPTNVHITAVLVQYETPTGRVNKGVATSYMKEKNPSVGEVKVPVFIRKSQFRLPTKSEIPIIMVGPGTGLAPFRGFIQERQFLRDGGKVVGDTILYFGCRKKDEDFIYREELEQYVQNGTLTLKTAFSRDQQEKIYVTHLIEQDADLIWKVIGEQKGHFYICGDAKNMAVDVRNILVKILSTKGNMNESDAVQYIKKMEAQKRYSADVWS
Sequence of CYP9Q4 (A0A9B0BBT5 entry or part of it): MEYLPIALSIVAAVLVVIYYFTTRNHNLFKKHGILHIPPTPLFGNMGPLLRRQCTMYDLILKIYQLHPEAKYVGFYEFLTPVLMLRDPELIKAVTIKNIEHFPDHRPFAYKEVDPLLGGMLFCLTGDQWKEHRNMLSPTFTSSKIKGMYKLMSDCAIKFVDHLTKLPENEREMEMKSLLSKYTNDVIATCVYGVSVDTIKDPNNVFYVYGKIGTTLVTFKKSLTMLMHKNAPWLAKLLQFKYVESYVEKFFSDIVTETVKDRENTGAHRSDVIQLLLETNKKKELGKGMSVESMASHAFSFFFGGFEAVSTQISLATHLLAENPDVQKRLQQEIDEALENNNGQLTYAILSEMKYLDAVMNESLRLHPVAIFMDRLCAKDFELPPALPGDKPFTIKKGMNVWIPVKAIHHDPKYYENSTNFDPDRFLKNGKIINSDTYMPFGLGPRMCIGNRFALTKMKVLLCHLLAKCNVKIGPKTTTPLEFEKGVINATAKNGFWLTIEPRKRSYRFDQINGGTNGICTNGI

Compound | Km at 45 min ([1]; Bombus terrestris) [µM] | Vmax, thiacloprid hydroxylation [1, 11] | metabolism by the recombinant P450 (in words) [1, 12] | EPA toxicity category [2] | metabolism by the recombinant P450 (in words) [3] | pIC50 [4] | pIC50 [5] | Km at 45 min ([6]; Bombus terrestris) [µM] | Vmax, thiacloprid hydroxylation [6, 11] | metabolism by the recombinant P450 (in words) [6, 12] | increase in the sensitivity of bumble bees after treatment with PBO [7] | LD50 ([7]; oral, no synergist) [μg/bee] | LD50 ([7]; oral, synergist PBO) [μg/bee] | EPA toxicity category [8] | resistance compared to control flies without the transgene [9] | resistance compared to control flies without the transgene [10] | Synergism Ratio ([7]; oral, PBO versus no synergist)
N#C/N=C1\SCCN1Cc1ccc(Cl)nc1 [thiacloprid] | 11.8 | 18,94±0,64 pmol min-1 mg-1 | metabolize thiacloprid to its 5-hydroxy form | slightly toxic” or “practically non-toxic | weak activity | 8.96 | 9.21 | 30 | 4,29±0,71 pmol min-1 mg-1 | metabolize thiacloprid to its 5-hydroxy form | 4.2 fold | 19.68 | 4.73 | slightly toxic” or “practically non-toxic | – | – | –
O=[N+]([O-])NC1=NCCN1Cc1ccc(Cl)nc1 [imidacloprid] | – | – | – | highly toxic | – | 8.92 | 9.15 | – | – | – | no significant shift | 0.038 | 0.032 | highly toxic | no significant differences in sensitivity | no significant differences | 1.2
